Test results: patent US20190142738A1, “TRANSDERMAL FORMULATIONS FOR DELIVERY OF CELECOXIB AND ITS USE IN THE TREATMENT OF CELECOXIB-RESPONSIVE DISEASES AND CONDITIONS” (DELIVRA INC., priority 2016, published 2019)
Read-outs that look alike come from different tables or passages of the source.

Assays:
Type in all cases: in vivo
[1] = tested on: sodium urate induced synovitis model in Beagle dogs; experiment: Caliper measurement of patella/patellar tendon (knee cap) width, percent baseline measure of inflammation, sodium urate induced synovitis model
Procedure: Study Design: The study was a randomized, blinded, preclinical study using a controlled, parallel, matched-group design. Thirty-two subjects meeting the inclusion criteria were enrolled in the trial and allocated to 4 balanced groups; therefore one group received 2 treatments separated by a minimum of 14 days. Following induction of synovitis by sodium urate injections, effectiveness of transdermal formulations were evaluated using a pain questionnaire assessment and joint measurements at various time points. [table] On days 0, 2, 7 and 22, subjects who were schedules for synovitis induction were treated according to their assigned treatment condition. Test article administration occurred 30 minutes following synovitis induction, i.e. sodium urate injection. Transdermal treatment doses were measured in milligrams using an analytical scale and were then applied directly to the induce stifle. Transdermal treatments were rubbed into the dog's skin for a minimum of 1 minute. […] If IV administration of the propofol was not possible due to inaccessibility of the vein, the subjects were masked down using the isoflurane-oxygen mixture and the event was recorded on the anesthesia record. […] Each treatment group had the same number of dogs induced in the left […]) Caliper measurements: Within thirty minutes of synovitis induction and 4.5, 8.5, 24.5 and 30.5 hours following induction (±15 minutes), the width of the patella and the patellar tendon were measured in millimeters using […] 150 mm plastic gauge calipers which measured in increments of 1 mm. […] The cumulative pain scored and stifle measurements were analyzed using a repeated-measures analysis of variance (ANOVA) with the treatment group (7 factors( ) as between-subject measure and time-point (5 factors for pain and 4 factors for the inflammation measure) as a within-subject measure. Post-hoc Fisher's test was used to examine differences as appropriate. The Statistica 11 (Statsoft, Tulsa, Okla.) statistical software package was used with significance set to […].

[2] = Oral and transdermal celecoxib concentrations in canine sera and synovial fluid; conditions: dogs; for concentration at 7 days / concentration at 60 min: dog
Excerpt: A Latin Square design was used employing six aged dogs with radiographic evidence of bilateral shoulder osteoarthritis. The treatment cycle consisted of six days twice daily followed by a period of seven days devoid of treatment. Blood and synovial fluid samples (from both stifles and shoulders) were collected on the last (sixth) day of drug application and on the last (seventh) day of the washout period.
Test article: 3% celecoxib in exemplary transdermal base formulation 4; ˜0.5 g gel per shoulder (2) and stifle joint (2) twice daily (i.e. 60 mg celecoxib total twice daily).
Control article: Exemplary transdermal base formulation 5; ˜1 g gel per shoulder joint twice daily.
Positive control: 30 mg celecoxib in capsule PO twice daily.
Serum and Synovial Fluid Collection:
Whole blood and synovial fluid samples were collected from the dogs 60 mins post treatment on the […], and additional samples were collected after a 7 day washout. Baseline synovial fluid was collected from untreated canine subjects. Synovial fluid was collected under sedation (medetomidine, 0.01 mg/kg) and butorphenol (0.1 mg/kg, IV). The fluid was collected by arthrocentesis into the joint following surgical preparation of the area. Synovial fluid was collected from the stifle or shoulder joints.
Analytical Method Development and Quantification:
The method for quantification of celecoxib in serum, plasma and synovial fluid was completed by the National Research Council of Canada (NRC). The results were categorized and summarized for average and deviations for each treatment group and time period.
The objective of this study was to determine if the transdermal formulations of the application were capable of delivering celecoxib either into the systemic circulation and joint synovial fluid and compare transdermal versus oral routes of administration. A canine model was used over two time periods. The first time period consisting of a twice daily drug administration regimen for six days to assess concentrations predictive of chronic use. The second time period followed immediately after, wherein all animals were withdrawn of drug administration and tested after seven days to determine if celecoxib was completely metabolized.

[3] = tested on: sodium urate induced synovitis model in Beagle dogs; experiment: Pain questionnaire assessment (cumulative pain score), sodium urate induced synovitis model
Procedure: Study Design: The study was a randomized, blinded, preclinical study using a controlled, parallel, matched-group design. Thirty-two subjects meeting the inclusion criteria were enrolled in the trial and allocated to 4 balanced groups; therefore one group received 2 treatments separated by a minimum of 14 days. Following induction of synovitis by sodium urate injections, effectiveness of transdermal formulations were evaluated using a pain questionnaire assessment and joint measurements at various time points. [table] On days 0, 2, 7 and 22, subjects who were schedules for synovitis induction were treated according to their assigned treatment condition. Test article administration occurred 30 minutes following synovitis induction, i.e. sodium urate injection. Transdermal treatment doses were measured in milligrams using an analytical scale and were then applied directly to the induce stifle. […] If IV administration of the propofol was not possible due to inaccessibility of the vein, the subjects were masked down using the isoflurane-oxygen mixture and the event was recorded on the anesthesia record. […] Specifically, the ability for each dog to walk, trot, gallop, rear, jump over a low obstacle, climb and descend stairs, jump down from a perch and general activity is evaluated in parallel to subjective evaluation of pain observed during each behavior. […]

[4] = Oral, 30 mg capsule PO twice daily (60 mg/day), Chronic administration (6 days)
[5] = Transdermal (formulation 4), Washout (7 days)
[6] = Transdermal, 3% celecoxib in formulation 4, 120 mg/day, Chronic administration (6 days)

**Q.** Which “inflammation compared to Voltaren” value ([1]; 8 hours) does the source give for `Cc1ccc(-c2cc(C(F)(F)F)nn2-c2ccc(S(N)(=O)=O)cc2)cc1` [celecoxib] here?
**A.** Its value is “significantly reduced inflammation”.

**Q.** What about the “percent baseline measure of inflammation (knee cap measurement) in comparison to no treatment” value ([1]; 24 hours) of the same compound?
**A.** The value was “significantly reduced”.

**Q.** What about the “effects on inflammation compared to negative control” value ([1]; summary statement, no time point stated) of the same compound?
**A.** The value was “no effects”.

**Q.** What about the concentration at 7 days ([2]; serum, 30 mg, Oral, Washout (7 days), read-out: Serum drug concentration of celecoxib) of the same compound?
**A.** Its concentration at 7 days is 0 µg/mL.

**Q.** And the concentration at 7 days ([2]; serum, topical, 60 mg, Transdermal (formulation 4), Washout (7 days), read-out: Serum drug concentration of celecoxib)?
**A.** Its concentration at 7 days is 0.004 µg/mL.

**Q.** And the concentration at 60 min ([2]; serum, topical, 60 mg, Transdermal, 3% celecoxib in formulation 4, 120 mg/day, Chronic administration (6 days), read-out: Serum drug concentration of celecoxib)?
**A.** The concentration at 60 min was 0.221 µg/mL.

**Q.** And the concentration at 60 min ([2]; serum, Oral, 30 mg capsule PO twice daily (60 mg/day), Chronic administration (6 days), read-out: Serum drug concentration of celecoxib)?
**A.** The concentration at 60 min was 0.312 µg/mL.

**Q.** And the concentration at 7 days ([2]; synovial fluid, 30 mg, Oral, Washout (7 days), read-out: Synovial fluid drug concentration of celecoxib)?
**A.** Its concentration at 7 days is 0.001 µg/mL.

**Q.** What about the concentration at 7 days ([2]; synovial fluid, topical, 60 mg, Transdermal (formulation 4), Washout (7 days), read-out: Synovial fluid drug concentration of celecoxib) of the same compound?
**A.** Its concentration at 7 days is 0.017 µg/mL.

**Q.** What about the concentration at 60 min ([2]; synovial fluid, topical, 60 mg, Transdermal, 3% celecoxib in formulation 4, 120 mg/day, Chronic administration (6 days), read-out: Synovial fluid drug concentration of celecoxib) of the same compound?
**A.** Its concentration at 60 min is 0.203 µg/mL.

**Q.** And the concentration at 60 min ([2]; synovial fluid, Oral, 30 mg capsule PO twice daily (60 mg/day), Chronic administration (6 days), read-out: Synovial fluid drug concentration of celecoxib)?
**A.** Its concentration at 60 min is 0.076 µg/mL.

**Q.** And the “Serum drug concentration of celecoxib” value [2, 4]?
**A.** Its value is 312 (±214) ng/mL.

**Q.** And the “Synovial fluid drug concentration of celecoxib” value [2, 4]?
**A.** Its value is 76 (±57) ng/mL.

**Q.** And the “Synovial fluid drug concentration of celecoxib” value ([2]; Oral, Washout (7 days))?
**A.** The value was 1 (±1) ng/mL.

**Q.** What about the “Serum drug concentration of celecoxib” value [2, 5] of the same compound?
**A.** The value was 4 (±6) ng/mL.

**Q.** And the “Synovial fluid drug concentration of celecoxib” value [2, 5]?
**A.** Its value is 17 (±35) ng/mL.

**Q.** And the “Serum drug concentration of celecoxib” value [2, 6]?
**A.** The value was 221 (±227) ng/mL.

**Q.** And the “Synovial fluid drug concentration of celecoxib” value [2, 6]?
**A.** Its value is 203 (±165) ng/mL.

**Q.** What about the “amount of drug the transdermal route requires to achieve the same circulating concentration as oral” value ([2]; chronic treatment, transdermal versus oral) of the same compound?
**A.** Its value is “twofold”.

**Q.** What about the “reduction of circulating drug concentrations by one week washout” value ([2]; serum, oral or transdermal) of the same compound?
**A.** Its value is greater than 95%.

**Q.** And the “reduction of drug concentration by one week washout” value ([2]; synovial fluid, oral or transdermal)?
**A.** Its value is greater than 90%.

**Q.** What about the “cumulative pain score in comparison to no treatment” value ([3]; 4 hours after treatment) of the same compound?
**A.** Its value is “significantly reduced”.

**Q.** What about the “cumulative pain score in comparison to no treatment” value ([3]; 8 hours after treatment) of the same compound?
**A.** The value was “significantly reduced”.
